Data as given in ChEMBL document CHEMBL5649169 (ChemMedChem, 2018).

Columns and labels:
[1] = target: TGF-beta receptor type-1 (Homo sapiens) (UniProt P36897)
[2] = target: TRAF2 and NCK-interacting protein kinase (Homo sapiens) (UniProt Q9UKE5)
[3] = target: Ubiquitin-conjugating enzyme E2 L3 (Homo sapiens) (UniProt P68036)
[4] = target: Eukaryotic translation initiation factor 6 (Homo sapiens) (UniProt P56537)
[5] = target: Large ribosomal subunit protein uL15 (Homo sapiens) (UniProt P46776)
[6] = target: Receptor-interacting serine/threonine-protein kinase 3 (Homo sapiens) (UniProt Q9Y572)
Receptor-interacting serine/threonine-protein kinase 3 (Homo sapiens), sequence (Q9Y572 whole entry, looked up): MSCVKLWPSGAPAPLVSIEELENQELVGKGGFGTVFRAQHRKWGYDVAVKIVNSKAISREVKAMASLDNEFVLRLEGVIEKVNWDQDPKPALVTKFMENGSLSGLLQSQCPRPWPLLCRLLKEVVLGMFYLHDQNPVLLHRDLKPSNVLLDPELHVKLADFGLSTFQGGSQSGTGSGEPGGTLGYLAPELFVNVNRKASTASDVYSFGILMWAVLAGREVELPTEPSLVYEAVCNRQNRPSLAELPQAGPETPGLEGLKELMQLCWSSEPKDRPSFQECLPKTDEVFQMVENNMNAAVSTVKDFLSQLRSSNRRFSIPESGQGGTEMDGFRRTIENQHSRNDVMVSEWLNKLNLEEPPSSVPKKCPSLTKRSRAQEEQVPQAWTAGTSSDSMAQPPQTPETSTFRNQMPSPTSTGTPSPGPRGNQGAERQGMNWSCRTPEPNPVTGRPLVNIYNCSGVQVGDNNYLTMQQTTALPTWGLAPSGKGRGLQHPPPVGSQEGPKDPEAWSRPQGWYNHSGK

[7] = target: Eukaryotic translation initiation factor 3 subunit E (Homo sapiens) (UniProt P60228)
[8] = target: ORM1-like protein 3 (Homo sapiens) (UniProt Q8N138)
[9] = target: Mitogen-activated protein kinase 15 (Homo sapiens) (UniProt Q8TD08)
[10] = target: Vitamin K epoxide reductase complex subunit 1-like protein 1 (Homo sapiens) (UniProt Q8N0U8)
[11] = target: DAZ-associated protein 1 (Homo sapiens) (UniProt Q96EP5)
Homo sapiens [12] = species on record: Homo sapiens
[13] = target: Eukaryotic translation initiation factor 3 subunit J (Homo sapiens) (UniProt O75822)
Eukaryotic translation initiation factor 3 subunit J (Homo sapiens), sequence (O75822 whole entry): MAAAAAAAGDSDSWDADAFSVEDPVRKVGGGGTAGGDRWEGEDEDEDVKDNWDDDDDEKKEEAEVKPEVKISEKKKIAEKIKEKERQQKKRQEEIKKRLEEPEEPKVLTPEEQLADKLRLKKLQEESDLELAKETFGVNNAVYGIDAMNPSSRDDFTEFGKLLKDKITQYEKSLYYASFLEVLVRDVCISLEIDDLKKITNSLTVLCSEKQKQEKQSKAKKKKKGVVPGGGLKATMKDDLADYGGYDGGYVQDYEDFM

Homo sapiens [14] = species on record: Homo sapiens; remark: listed apart in the source
[15] = target: ATP-binding cassette sub-family D member 3 (Homo sapiens) (UniProt P28288)
[16] = target: Cancer-related nucleoside-triphosphatase (Homo sapiens) (UniProt Q9BSD7)
[17] = target: Ribosomal protein S6 kinase alpha-4 (Homo sapiens) (UniProt O75676)
[18] = target: Large ribosomal subunit protein eL31 (Homo sapiens) (UniProt P62899)
[19] = target: Vesicle-trafficking protein SEC22b (Homo sapiens) (UniProt O75396)
[20] = target: Mitochondrial import inner membrane translocase subunit TIM50 (Homo sapiens) (UniProt Q3ZCQ8)
[21] = target: Transport and Golgi organization protein 1 homolog (Homo sapiens) (UniProt Q5JRA6)
[22] = target: Protein LYRIC (Homo sapiens) (UniProt Q86UE4)
[23] = target: Large ribosomal subunit protein uL29 (Homo sapiens) (UniProt P42766)
[24] = target: Enhancer of rudimentary homolog (Homo sapiens) (UniProt P84090)
Filamin-A (Homo sapiens) = Filamin-A (Homo sapiens) (UniProt P21333)
Myosin-9 (Homo sapiens) = Myosin-9 (Homo sapiens) (UniProt P35579)
[25] = target: Sterol O-acyltransferase 1 (Homo sapiens) (UniProt P35610)
Sterol O-acyltransferase 1 (Homo sapiens), sequence (P35610 whole entry): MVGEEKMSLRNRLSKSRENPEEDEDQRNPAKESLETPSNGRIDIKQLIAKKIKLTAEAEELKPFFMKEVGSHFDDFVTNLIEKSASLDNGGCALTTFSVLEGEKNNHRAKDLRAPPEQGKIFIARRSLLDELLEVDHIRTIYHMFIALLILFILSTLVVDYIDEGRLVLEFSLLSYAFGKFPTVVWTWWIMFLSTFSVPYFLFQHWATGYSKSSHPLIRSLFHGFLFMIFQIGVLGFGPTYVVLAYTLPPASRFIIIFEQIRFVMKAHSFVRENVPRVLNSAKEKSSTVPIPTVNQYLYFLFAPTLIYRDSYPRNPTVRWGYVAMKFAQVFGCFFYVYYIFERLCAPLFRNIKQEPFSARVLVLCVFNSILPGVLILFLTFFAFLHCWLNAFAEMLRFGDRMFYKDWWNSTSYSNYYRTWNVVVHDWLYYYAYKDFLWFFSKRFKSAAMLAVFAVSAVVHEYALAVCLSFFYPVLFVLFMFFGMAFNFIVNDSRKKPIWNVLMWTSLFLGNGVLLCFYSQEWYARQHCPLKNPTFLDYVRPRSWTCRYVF

[26] = target: CYFIP-related Rac1 interactor B (Homo sapiens) (UniProt Q9NUQ9)
[27] = target: Serine/threonine-protein phosphatase PGAM5, mitochondrial (Homo sapiens) (UniProt Q96HS1)
[28] = target: Centromere/kinetochore protein zw10 homolog (Homo sapiens) (UniProt O43264)
[29] = target: DNA replication licensing factor MCM7 (Homo sapiens) (UniProt P33993)
[30] = target: Nuclear pore complex protein Nup160 (Homo sapiens) (UniProt Q12769)
Calumenin (Homo sapiens) = Calumenin (Homo sapiens) (UniProt O43852)
[31] = target: Very-long-chain 3-oxoacyl-CoA reductase (Homo sapiens) (UniProt Q53GQ0)
Very-long-chain 3-oxoacyl-CoA reductase (Homo sapiens), sequence (Q53GQ0 whole entry): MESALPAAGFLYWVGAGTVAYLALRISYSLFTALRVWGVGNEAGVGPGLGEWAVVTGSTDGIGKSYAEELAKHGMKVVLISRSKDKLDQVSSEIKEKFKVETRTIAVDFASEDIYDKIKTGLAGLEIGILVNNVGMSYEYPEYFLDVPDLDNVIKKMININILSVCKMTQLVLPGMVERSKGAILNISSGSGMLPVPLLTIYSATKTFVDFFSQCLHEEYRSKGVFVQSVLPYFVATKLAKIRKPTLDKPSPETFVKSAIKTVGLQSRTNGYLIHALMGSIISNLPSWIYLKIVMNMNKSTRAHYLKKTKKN

[32] = target: GPI-anchor transamidase component GPAA1 (Homo sapiens) (UniProt O43292)
GPI-anchor transamidase component GPAA1 (Homo sapiens), sequence (O43292 whole entry): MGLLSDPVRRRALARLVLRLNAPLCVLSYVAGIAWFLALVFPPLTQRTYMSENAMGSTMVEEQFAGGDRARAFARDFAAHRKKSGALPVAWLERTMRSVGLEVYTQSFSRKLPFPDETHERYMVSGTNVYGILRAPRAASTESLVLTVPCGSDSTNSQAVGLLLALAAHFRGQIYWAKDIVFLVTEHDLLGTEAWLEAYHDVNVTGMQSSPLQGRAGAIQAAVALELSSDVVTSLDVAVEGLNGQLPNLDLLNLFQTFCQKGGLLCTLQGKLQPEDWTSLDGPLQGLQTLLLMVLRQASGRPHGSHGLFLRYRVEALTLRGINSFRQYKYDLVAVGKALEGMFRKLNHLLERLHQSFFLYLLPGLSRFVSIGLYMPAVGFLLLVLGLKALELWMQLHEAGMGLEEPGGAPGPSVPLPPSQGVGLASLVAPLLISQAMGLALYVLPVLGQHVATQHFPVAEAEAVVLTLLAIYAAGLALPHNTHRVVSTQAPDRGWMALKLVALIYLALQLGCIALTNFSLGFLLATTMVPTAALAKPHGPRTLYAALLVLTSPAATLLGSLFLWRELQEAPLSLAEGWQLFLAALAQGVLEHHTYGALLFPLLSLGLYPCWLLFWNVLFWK

[33] = target: Calcium/calmodulin-dependent protein kinase kinase 2 (Homo sapiens) (UniProt Q96RR4)
[34] = target: Discoidin domain-containing receptor 2 (Homo sapiens) (UniProt Q16832)
[35] = target: Protein-tyrosine kinase 2-beta (Homo sapiens) (UniProt Q14289)
Protein-tyrosine kinase 2-beta (Homo sapiens), sequence (Q14289 whole entry, looked up): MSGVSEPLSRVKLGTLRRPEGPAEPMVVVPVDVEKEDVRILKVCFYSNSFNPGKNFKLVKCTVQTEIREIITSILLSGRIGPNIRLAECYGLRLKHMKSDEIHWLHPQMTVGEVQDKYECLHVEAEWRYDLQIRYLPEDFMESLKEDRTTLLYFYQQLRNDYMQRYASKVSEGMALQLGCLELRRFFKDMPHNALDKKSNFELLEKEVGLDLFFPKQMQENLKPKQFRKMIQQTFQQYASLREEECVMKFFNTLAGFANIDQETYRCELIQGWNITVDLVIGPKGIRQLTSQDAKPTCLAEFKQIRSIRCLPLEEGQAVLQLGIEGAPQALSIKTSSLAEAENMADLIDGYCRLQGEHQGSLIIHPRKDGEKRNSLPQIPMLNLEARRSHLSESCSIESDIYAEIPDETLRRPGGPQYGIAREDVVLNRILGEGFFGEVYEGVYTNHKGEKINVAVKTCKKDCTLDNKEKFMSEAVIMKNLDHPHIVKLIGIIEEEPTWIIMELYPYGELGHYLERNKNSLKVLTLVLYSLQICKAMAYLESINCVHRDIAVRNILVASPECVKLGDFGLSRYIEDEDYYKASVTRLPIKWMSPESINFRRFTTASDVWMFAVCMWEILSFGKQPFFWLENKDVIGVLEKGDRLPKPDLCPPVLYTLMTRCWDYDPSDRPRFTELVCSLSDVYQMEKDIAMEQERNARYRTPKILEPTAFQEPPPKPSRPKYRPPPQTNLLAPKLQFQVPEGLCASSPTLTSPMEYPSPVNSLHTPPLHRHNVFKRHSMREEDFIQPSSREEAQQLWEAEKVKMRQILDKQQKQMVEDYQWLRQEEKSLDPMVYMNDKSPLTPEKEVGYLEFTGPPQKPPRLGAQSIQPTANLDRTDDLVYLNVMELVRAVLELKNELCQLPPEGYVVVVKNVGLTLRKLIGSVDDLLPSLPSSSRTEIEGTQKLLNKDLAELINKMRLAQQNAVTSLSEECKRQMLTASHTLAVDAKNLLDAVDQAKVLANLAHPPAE

[36] = target: Mitogen-activated protein kinase kinase kinase 4 (Homo sapiens) (UniProt Q9Y6R4)
[37] = target: Exportin-7 (Homo sapiens) (UniProt Q9UIA9)
[38] = target: Serine/threonine-protein phosphatase 2A 65 kDa regulatory subunit A alpha isoform (Homo sapiens) (UniProt P30153)
Septin-9 (Homo sapiens) = Septin-9 (Homo sapiens) (UniProt Q9UHD8)
[39] = target: Inhibitor of nuclear factor kappa-B kinase subunit epsilon (Homo sapiens) (UniProt Q14164)
[40] = target: Nucleolar protein 56 (Homo sapiens) (UniProt O00567)
Dynamin-2 (Homo sapiens) = Dynamin-2 (Homo sapiens) (UniProt P50570)
Ephrin type-A receptor 5 = Ephrin type-A receptor 5 (Homo sapiens, UniProt P54756)
[41] = target: Histone acetyltransferase type B catalytic subunit (Homo sapiens) (UniProt O14929)
Histone acetyltransferase type B catalytic subunit (Homo sapiens), sequence (O14929 2-419 limits assumed): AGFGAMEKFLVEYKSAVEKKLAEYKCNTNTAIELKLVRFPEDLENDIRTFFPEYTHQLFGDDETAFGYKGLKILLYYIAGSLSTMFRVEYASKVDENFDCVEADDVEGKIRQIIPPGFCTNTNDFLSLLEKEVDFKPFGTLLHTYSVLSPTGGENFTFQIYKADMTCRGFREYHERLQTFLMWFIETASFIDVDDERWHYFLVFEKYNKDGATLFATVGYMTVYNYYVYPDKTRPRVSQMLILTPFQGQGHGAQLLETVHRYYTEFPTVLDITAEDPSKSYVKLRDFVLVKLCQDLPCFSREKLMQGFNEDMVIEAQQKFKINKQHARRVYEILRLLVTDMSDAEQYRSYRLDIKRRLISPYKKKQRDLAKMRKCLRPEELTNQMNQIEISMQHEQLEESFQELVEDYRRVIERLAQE
Note: assay method not described here.

TRAF2 and NCK-interacting protein kinase (Homo sapiens), sequence (Q9UKE5 whole entry, looked up): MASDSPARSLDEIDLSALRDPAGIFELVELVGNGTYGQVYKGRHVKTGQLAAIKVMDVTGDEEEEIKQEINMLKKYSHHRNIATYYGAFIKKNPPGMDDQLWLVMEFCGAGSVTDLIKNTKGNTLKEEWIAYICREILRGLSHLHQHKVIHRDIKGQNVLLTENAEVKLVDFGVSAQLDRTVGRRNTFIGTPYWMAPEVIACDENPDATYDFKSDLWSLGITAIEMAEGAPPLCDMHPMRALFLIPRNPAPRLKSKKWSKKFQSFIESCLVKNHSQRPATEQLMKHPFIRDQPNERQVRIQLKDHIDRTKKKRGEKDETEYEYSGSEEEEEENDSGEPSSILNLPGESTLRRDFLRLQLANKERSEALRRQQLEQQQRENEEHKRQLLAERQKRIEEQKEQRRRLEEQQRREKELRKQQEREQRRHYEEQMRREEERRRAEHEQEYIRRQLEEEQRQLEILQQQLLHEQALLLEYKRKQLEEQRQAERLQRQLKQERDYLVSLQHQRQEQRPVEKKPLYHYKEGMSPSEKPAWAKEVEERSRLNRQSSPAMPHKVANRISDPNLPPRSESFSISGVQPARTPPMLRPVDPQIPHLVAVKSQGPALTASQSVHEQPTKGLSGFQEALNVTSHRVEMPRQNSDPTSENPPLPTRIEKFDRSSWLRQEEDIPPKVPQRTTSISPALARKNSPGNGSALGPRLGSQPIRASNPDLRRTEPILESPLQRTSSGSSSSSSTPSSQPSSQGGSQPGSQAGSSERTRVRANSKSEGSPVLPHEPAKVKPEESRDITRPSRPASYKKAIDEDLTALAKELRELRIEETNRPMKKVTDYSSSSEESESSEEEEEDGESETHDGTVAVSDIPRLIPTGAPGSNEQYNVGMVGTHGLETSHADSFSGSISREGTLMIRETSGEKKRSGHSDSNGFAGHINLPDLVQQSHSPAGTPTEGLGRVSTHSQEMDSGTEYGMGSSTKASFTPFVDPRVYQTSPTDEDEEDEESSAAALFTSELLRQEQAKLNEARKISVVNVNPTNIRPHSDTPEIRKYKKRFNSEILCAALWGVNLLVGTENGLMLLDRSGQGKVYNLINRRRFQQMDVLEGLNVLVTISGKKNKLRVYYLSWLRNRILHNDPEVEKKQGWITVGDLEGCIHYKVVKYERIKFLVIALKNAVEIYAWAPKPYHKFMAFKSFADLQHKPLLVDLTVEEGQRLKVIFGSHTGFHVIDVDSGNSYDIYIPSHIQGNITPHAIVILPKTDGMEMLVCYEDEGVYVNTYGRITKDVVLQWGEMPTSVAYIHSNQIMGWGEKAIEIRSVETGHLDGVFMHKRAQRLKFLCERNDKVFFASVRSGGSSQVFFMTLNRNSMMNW

Cc1ccc(C(=O)Nc2cccc(C(F)(F)F)c2)cc1Nc1nc(-c2cccnc2)nc2c1cnn2C
ED50 [1]: 0.384 nM | ED50 [2]: 23200 nM | ED50 [3]: 5790 nM | ED50 [4]: 3000 nM | ED50 [5]: 5950 nM | ED50 [6]: 2750 nM | ED50 [7]: 24500 nM | ED50 [8]: 5950 nM | ED50 [9]: 26 nM | ED50 [10]: 5890 nM | ED50 [11]: 124 nM | ED50 (Homo sapiens [12]): 7040 nM | ED50 [13]: 126 nM | ED50 (Homo sapiens [14]): 3030 nM | ED50 [15]: 2020 nM | ED50 [16]: 844000 nM | ED50 [17]: 14.2 nM | ED50 [18]: 14900 nM | ED50 [19]: 103000 nM | ED50 [20]: 3590 nM | ED50 [21]: 3640 nM | ED50 [22]: 4510 nM | ED50 [23]: 64900 nM | ED50 [24]: 8.95 nM | ED50 (Filamin-A (Homo sapiens)): 7880 nM | ED50 (Myosin-9 (Homo sapiens)): 756 nM | ED50 [25]: 224000 nM | ED50 [26]: 4850 nM | ED50 [27]: 809 nM | ED50 [28]: 2900 nM | ED50 [29]: 5390 nM | ED50 [30]: 878 nM | ED50 (Calumenin (Homo sapiens)): 1720 nM | ED50 [31]: 53.3 nM | ED50 [32]: 56500 nM | ED50 [33]: 112 nM | ED50 [34]: 542 nM | ED50 [35]: 433 nM | ED50 [36]: 7940 nM | ED50 [37]: 51.7 nM | ED50 [38]: 2000 nM | ED50 (Septin-9 (Homo sapiens)): 8650 nM | ED50 [39]: 123 nM | ED50 [40]: 13100 nM | ED50 (Dynamin-2 (Homo sapiens)): 21900 nM | ED50 (Ephrin type-A receptor 5): 63.3 nM | ED50 [41]: 183 nM

Cc1ccc(C(=O)Nc2cccc(C(F)(F)F)c2)cc1Nc1nc(-c2cccnc2)nc2nn(C)cc12
ED50 [1]: 29 nM | ED50 [2]: 75.1 nM | ED50 [3]: 320 nM | ED50 [4]: 223 nM | ED50 [5]: 16700 nM | ED50 [6]: 6310 nM | ED50 [7]: 512 nM | ED50 [8]: 7470 nM | ED50 [9]: 37.3 nM | ED50 [10]: 2510 nM | ED50 [11]: 26.4 nM | ED50 (Homo sapiens [12]): 39200 nM | ED50 [13]: 540 nM | ED50 (Homo sapiens [14]): 9.33 nM | ED50 [15]: 28.9 nM | ED50 [16]: 60.8 nM | ED50 [17]: 154 nM | ED50 [18]: 4.49 nM | ED50 [19]: 3320 nM | ED50 [20]: 1850 nM | ED50 [21]: 120000 nM | ED50 [22]: 6820 nM | ED50 [23]: 7.71 nM | ED50 [24]: 806 nM | ED50 (Filamin-A (Homo sapiens)): 21400 nM | ED50 (Myosin-9 (Homo sapiens)): 97.3 nM | ED50 [25]: 7060 nM | ED50 [26]: 43000 nM | ED50 [27]: 7340 nM | ED50 [28]: 54.4 nM | ED50 [29]: 50300 nM | ED50 [30]: 160000 nM | ED50 (Calumenin (Homo sapiens)): 3410 nM | ED50 [31]: 5.39 nM | ED50 [32]: 841 nM | ED50 [33]: 10200 nM | ED50 [34]: 387 nM | ED50 [35]: 36600 nM | ED50 [36]: 50 nM | ED50 [37]: 17.3 nM | ED50 [38]: 203000 nM | ED50 (Septin-9 (Homo sapiens)): 109 nM | ED50 [39]: 9310 nM | ED50 [40]: 4000 nM | ED50 (Dynamin-2 (Homo sapiens)): 471 nM | ED50 (Ephrin type-A receptor 5): 982 nM | ED50 [41]: 52.6 nM
